From PMC6934184, “Selective DNA-PKcs inhibition extends the therapeutic index of localized radiotherapy and chemotherapy” (The Journal of Clinical Investigation, 2019)

Biological target: T1, BMPR1B (ALK6) (Homo sapiens, UniProt O00238)
T1 construct: purchased Thermo Fisher Scientific (Life Technologies) SelectScreen
Assay: SelectScreen LanthaScreen
Format: binding
Conditions: read-out: % displacement
Outline: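 Percent values come from Thermo SelectScreen profiling of NU5455, combining activity and binding assays. CSF1R was run in Z'LYTE format at Km app ATP, and CAMK1 in Adapta format with ATP listed at 10.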

T1 sequence (O00238 14-502): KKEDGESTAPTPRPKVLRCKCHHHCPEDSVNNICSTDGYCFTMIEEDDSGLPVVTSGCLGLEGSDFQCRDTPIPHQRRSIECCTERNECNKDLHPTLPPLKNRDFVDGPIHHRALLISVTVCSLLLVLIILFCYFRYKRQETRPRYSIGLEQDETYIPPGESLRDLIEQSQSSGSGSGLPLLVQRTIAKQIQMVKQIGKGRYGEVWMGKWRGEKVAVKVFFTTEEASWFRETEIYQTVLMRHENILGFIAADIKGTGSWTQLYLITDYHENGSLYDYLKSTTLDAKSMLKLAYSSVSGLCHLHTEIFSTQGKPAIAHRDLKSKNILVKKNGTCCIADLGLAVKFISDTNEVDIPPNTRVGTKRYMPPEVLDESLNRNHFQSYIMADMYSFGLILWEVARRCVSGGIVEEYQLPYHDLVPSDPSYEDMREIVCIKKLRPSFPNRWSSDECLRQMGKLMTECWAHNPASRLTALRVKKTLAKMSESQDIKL

`CN(C(=O)CN1CCOCC1)c1ccc2sc3c(-c4cccc5c(=O)cc(N6CC7CCC(C6)O7)oc45)cccc3c2c1` [NU5455] gave an inhibition at 1 µM of 14.5%.
